Results from a melting point compilation (Tetko et al.; mined from patent text by program, amines drawn as free bases though some values may be those of a salt).

Row | Compound | melting point [°C]
1 | CCS(=O)(=O)N[C@H]1CC[C@H](CCN2CCN(c3nccc4c3OCC4)CC2)CC1 | 190
2 | c1coc(-c2cnc3[nH]c4ccccc4c3c2)c1 | > 220
3 | Cc1cc(CCC(=O)O)nc(-c2nc(=O)c3ccccc3s2)c1 | 245 to 246
4 | COC(=O)C1CCC2C3CC(=O)C4(O)CC(O)CCC4(C)C3CCC12C (configuration not stated) | 258 to 260
5 | CCCN1C(=O)C2(c3ccccc3)CC(c3ccc([N+](=O)[O-])cc3)(C2)C1=O | 144 to 146
6 | ClCCCOc1ccccc1Nc1nc(Cl)nc2c1ncn2C1CCCC1 | 110 to 112
7 | CCCCOC(=O)c1cc([N+](=O)[O-])c(Oc2ccc(OCc3ccccc3)cc2)c(S(N)(=O)=O)c1 | 138 to 144
8 | CCCCCCCCCCCCCCCc1ccc(-c2nc(-c3ccccc3Cl)nn2C)cc1 | 62 to 65
9 | O=C(O)Cc1ccc(CCl)cc1 | 147 to 149
10 | CC(C)Cc1ccc(C(Nc2cccc(C(=O)n3cc(CCCC(=O)O)c4ccccc43)c2)c2ccc(CC(C)C)cc2)cc1 | 74.8
11 | CCNC(=O)C(C)n1cc(C)c(-c2ccccc2)n1 (configuration not stated) | 78 to 79
12 | Nc1ccc2c(c1)C(C(=O)Oc1ccccc1)CCC2 (configuration not stated) | 89 to 90
13 | NC(=O)N1C(=O)C(C(=O)c2ccccc2)c2ncc(Cl)cc21 (configuration not stated) | 260
14 | COc1ccc(Oc2ccccc2NS(C)(=O)=O)cc1 | 81 to 83
15 | Nc1cc(F)c([N+](=O)[O-])cc1F | 153
16 | CCCCCCCCC(SCCCCCC)C(=O)Nc1c([N+](=O)[O-])ccc2ncccc12 (configuration not stated) | 89.9
17 | COC(=O)CCCCCCCCCCCCCCCO | 54.2
18 | O=S(=O)(Br)c1ccc(Br)s1 | 48 to 50
19 | CS(=O)(=O)c1ccc(Oc2ccc3[nH]c(C4=NCC(CC(=O)N5CCOCC5)S4)cc3c2)cn1 (configuration not stated) | 168 to 169
20 | COC(=O)C(C)Oc1cccc2cccnc12 (configuration not stated) | 70 to 72
21 | COc1cc2ncnc(N3CCC(CCN4C=CC=NS4(=O)=O)CC3)c2cc1OC | 176 to 178
22 | ClCCOc1cccc(OCCCl)c1 | 104 to 105
23 | Cc1cc(Cl)ncc1C(=O)O | 170 to 172
24 | CC(=O)CCc1ccc2c(c1)Cc1cc(O)ccc1-2 | 170
25 | CCCc1nc2c(C)ccnc2n1Cc1ccc2[nH]ccc2c1 | 110 to 112
26 | COC(=N)NC(=O)Nc1ccc(Cl)cc1 | 115 to 117

Row | Compound | melting point [°C]
27 | O=C(Nc1ccc2nc(CN3CCCC3)ccc2c1)c1ccc(-c2ccc(F)cc2)cc1 | 190 to 193
28 | CN1C[C@H](CN2CCC(O)(c3ccc(Cl)cc3)CC2)C=C2c3cccc4[nH]c(Cl)c(c34)C[C@H]21 | > 192
29 | CCOC(=O)[C@H](CC(C)C)NC(=O)[C@@H](NC(=O)c1ccccc1)C(C)C | 159 to 160
30 | Oc1ccc(Br)cc1Cc1ncc[nH]1 | 163 to 169
31 | CCCc1c(OCCCCCOc2ccc3c(c2CCC)OC(C(=O)O)CC3)ccc(CC)c1O (configuration not stated) | 101 to 102
32 | CCOC(=O)N1CCSC1COc1ccccc1OC (single isomer, unassigned; (-)) | 64 to 65
33 | O=c1[nH]c2ccccc2n1CCN1CCC(Nc2nc3cccnc3n2CCOCCO)CC1 | 177
34 | CCN(CC)CCNc1ccc(CO)c2sc3ccc(O)cc3c(=O)c12 | 181 to 182
35 | N#Cc1cc(Cc2ccccc2)ccc1N | 68 to 69
36 | CCN1CCC(C2CCN(C(=O)OCc3ccccc3)CC2)CC1 | 93 to 96
37 | Cn1nccc1C(=O)Nc1cc(Oc2ccc3nc(NC(=O)C4CC4)cn3n2)ccc1F | 253
38 | CSc1cccc2c1Oc1ccccc1N2[Si](C)(C)C(C)(C)C | 61 to 62
39 | O=C1Cc2cc3c(cc2C(c2ccco2)=NN1)OCO3 | 234 to 236
40 | O=C(Nc1cccc(S(=O)(=O)N2CCOCC2)c1)c1cnn2c(C(F)(F)F)cc(-c3ccc(Cl)cc3)nc12 | 144
41 | CCCN1CCC23c4cccc(OC)c4OC2C2CCC3(C1)C(COC)C2 (configuration not stated) | 130 to 131
42 | N=C(NCCCn1cc(C2=CC(=O)NC2=O)c2ccccc21)c1ccc(O)cc1 | > 300
43 | CCc1ccnc2cc(OC)c(OCc3ccccc3)cc12 | 132 to 134
44 | CCOC(=O)CCCCCCCCCCNC(=O)c1cc(O)ccc1O | 72 to 74
45 | CCCCCCCc1ccc(C=CC(=O)c2ccc(OCC=C(C)C)cc2OCC(=O)O)cc1 | 106 to 107
46 | COc1ccc(-c2nc3cc(Cl)c(Cl)cc3[nH]2)cc1[N+](=O)[O-] | 250
47 | CN(C)c1cc(C(O)c2ccccc2)c([N+](=O)[O-])cc1[N+](=O)[O-] (configuration not stated) | 147 to 150
48 | COc1cccc2c1[nH]c(=O)n2C(=O)Oc1ccccc1 | 204 to 205
49 | CCCc1c(C2=NN=C(C)Cc3cc4[nH]c(=O)oc4cc32)sc2ccccc12 | 307 to 308
50 | O=Cc1c(Cl)nc2ccccc2c1-c1ccc(F)cc1 | 168 to 170
51 | O=C(Nc1ccccc1)Nc1ccc(-c2ccc(C(=O)N3CCN4CCC3CC4)o2)cc1 | 125 to 130
52 | CCc1c(N)c(C(N)=O)nn1C1CN(C(C)C)C1 | 195 to 200
